US6737383B1, “Herbicidal oxadiazolidines” (priority 1999, dated 2004)

Key:
crabgrass = assay: Test B pre/postemergence crabgrass; format: in vivo, Digitaria sanguinalis
Procedure, shortened: (§1)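 Test chemicals in a non-phytotoxic solvent mixture with surfactant were sprayed preemergence onto planted seeds and postemergence onto plants 2 to 18 cm tall (1- to 4-leaf stage). After twelve to sixteen days in a greenhouse, injury was visually rated against untreated controls from 0 (no effect) to 10 (complete control).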

bedstraw = assay: Test B pre/postemergence bedstraw; format: in vivo, Galium aparine
Procedure, shortened: as §1

rape = assay: Test B pre/postemergence rape; format: in vivo, Brassica napus
Procedure, shortened: as §1

purple nutsedge = assay: Test B pre/postemergence purple nutsedge; format: in vivo, Cyperus rotundus
Procedure, shortened: as §1

velvetleaf = assay: Test B pre/postemergence velvetleaf; format: in vivo, Abutilon theophrasti
Procedure, shortened: as §1

wild oat = assay: Test B pre/postemergence wild oat; format: in vivo, Avena fatua
Procedure, shortened: as §1

giant foxtail = assay: Test B pre/postemergence giant foxtail; format: in vivo, Setaria faberii
Procedure, shortened: as §1

morningglory = assay: Test B pre/postemergence morningglory; format: in vivo, Ipomoea hederacea
Procedure, shortened: as §1

pigweed = assay: Test B pre/postemergence pigweed; format: in vivo, Amaranthus retroflexus
Procedure, shortened: as §1

wheat = assay: Test B pre/postemergence wheat; format: in vivo, Triticum aestivum
Procedure, shortened: as §1

surinam grass = assay: Test B pre/postemergence surinam grass; format: in vivo, Brachiaria decumbens
Procedure, shortened: as §1

sugar beet = assay: Test B pre/postemergence sugar beet; format: in vivo, Beta vulgaris
Procedure, shortened: as §1

corn = assay: Test B pre/postemergence corn; format: in vivo, Zea mays
Procedure, shortened: as §1

blackgrass = assay: Test B pre/postemergence blackgrass; format: in vivo, Alopecurus myosuroides
Procedure, shortened: as §1

soybean = assay: Test B pre/postemergence soybean; format: in vivo, Glycine max
Procedure, shortened: as §1

cocklebur = assay: Test B pre/postemergence cocklebur; format: in vivo, Xanthium strumarium
Procedure, shortened: as §1

[1] = Postemergence, Rate 62 g/ha, scale of 0 to 10, 0 is no effect, 10 is complete control
[2] = Postemergence, Rate 125 g/ha, scale 0 to 10, 0 is no effect, 10 is complete control
[3] = Postemergence, Rate 500 g/ha, scale 0 to 10, 0 is no effect, 10 is complete control
[4] = Preemergence, Rate 62 g/ha, scale 0 to 10 (0 no effect, 10 complete control)
[5] = Preemergence, Rate 125 g/ha, scale 0 to 10, 0 is no effect, 10 is complete control
[6] = Preemergence, Rate 500 g/ha, scale of 0 to 10 where 0 is no effect and 10 is complete control
[7] = Rate 250 g/ha, Postemergence, scale of 0 to 10 where 0 is no effect and 10 is complete control

## CCOC(=O)C=C(Cn1c(=O)on(C(=O)N(c2ccc(Cl)cc2)C(C)C)c1=O)OCC [Compound 549]
crabgrass; [1]
  Crabgrass plant response rating: 2
crabgrass; [2]
  Crabgrass plant response rating: 3
crabgrass; [3]
  Plant response rating, Crabgrass: 9
crabgrass; [4]
  Crabgrass plant response rating: 3
crabgrass; [5]
  Crabgrass plant response rating: 7
crabgrass; Preemergence, Rate 250 g/ha
  Crabgrass plant response rating (0 to 10 scale): 10
crabgrass; [6]
  Crabgrass plant response rating: 10
crabgrass; [7]
  Plant response rating, Crabgrass: 6
bedstraw; [1]
  Bedstraw plant response rating: 0
bedstraw; [2]
  Bedstraw plant response rating: 0
bedstraw; [3]
  Plant response rating, Bedstraw: 8
bedstraw; [4]
  Bedstraw plant response rating: 0
bedstraw; [5]
  Bedstraw plant response rating: 0
bedstraw; Preemergence, Rate 250 g/ha
  Bedstraw plant response rating (0 to 10 scale): 5
bedstraw; [6]
  Bedstraw plant response rating: 5
bedstraw; [7]
  Plant response rating, Bedstraw: 0
rape; [1]
  Rape plant response rating: 0
rape; [2]
  Rape plant response rating: 0
rape; [3]
  Plant response rating, Rape: 7
rape; [4]
  Rape plant response rating: 0
rape; [5]
  Rape plant response rating: 0
rape; Preemergence, Rate 250 g/ha
  Rape plant response rating (0 to 10 scale): 0
rape; [6]
  Rape plant response rating: 0
rape; [7]
  Plant response rating, Rape: 5
Purple nutsedge; [2]
  Nutsedge plant response rating: 0
Purple nutsedge; [3]
  Plant response rating, Nutsedge: 0
Purple nutsedge; [5]
  Nutsedge plant response rating: 0
Purple nutsedge; Preemergence, Rate 250 g/ha
  Nutsedge plant response rating (0 to 10 scale): 0
Purple nutsedge; [6]
  Nutsedge plant response rating: 0
velvetleaf; [2]
  Velvetleaf plant response rating: 0
velvetleaf; [3]
  Plant response rating, Velvetleaf: 4
velvetleaf; [4]
  Velvetleaf plant response rating: 0
velvetleaf; [5]
  Velvetleaf plant response rating: 0
velvetleaf; Preemergence, Rate 250 g/ha
  Velvetleaf plant response rating (0 to 10 scale): 0
velvetleaf; [6]
  Velvetleaf plant response rating: 0
velvetleaf; [7]
  Plant response rating, Velvetleaf: 4
Wild oat; [1]
  Wild oats plant response rating: 0
Wild oat; [2]
  Wild oats plant response rating: 0
Wild oat; [3]
  Plant response rating, Wild oats: 2
Wild oat; [4]
  Wild oats plant response rating: 0
Wild oat; [5]
  Wild oats plant response rating: 0
Wild oat; Preemergence, Rate 250 g/ha
  Wild oats plant response rating (0 to 10 scale): 0
Wild oat; [6]
  Wild oats plant response rating: 3
Wild oat; [7]
  Plant response rating, Wild oats: 0
Giant foxtail; [1]
  Giant foxtail plant response rating: 2
Giant foxtail; [2]
  Giant foxtail plant response rating: 2
Giant foxtail; [3]
  Plant response rating, Giant foxtail: 7
Giant foxtail; [4]
  Giant foxtail plant response rating: 9
Giant foxtail; [5]
  Giant foxtail plant response rating: 10
Giant foxtail; Preemergence, Rate 250 g/ha
  Giant foxtail plant response rating (0 to 10 scale): 10
Giant foxtail; [6]
  Giant foxtail plant response rating: 10
Giant foxtail; [7]
  Plant response rating, Giant foxtail: 2
morningglory; [1]
  Morningglory plant response rating: 4
morningglory; [2]
  Morningglory plant response rating: 4
morningglory; [3]
  Plant response rating, Morningglory: 4
morningglory; [4]
  Morningglory plant response rating: 0
morningglory; [5]
  Morningglory plant response rating: 0
morningglory; Preemergence, Rate 250 g/ha
  Morningglory plant response rating (0 to 10 scale): 0
morningglory; [6]
  Morningglory plant response rating: 0
morningglory; [7]
  Plant response rating, Morningglory: 4
pigweed; [1]
  Redroot pigweed plant response rating: 0
pigweed; [2]
  Redroot pigweed plant response rating: 0
pigweed; [3]
  Plant response rating, Redroot pigweed: 8
pigweed; [4]
  Redroot pigweed plant response rating: 6
pigweed; [5]
  Redroot pigweed plant response rating: 6
pigweed; [7]
  Plant response rating, Redroot pigweed: 0
wheat; [1]
  Wheat plant response rating: 0
wheat; [2]
  Wheat plant response rating: 0
wheat; [3]
  Plant response rating, Wheat: 2
wheat; [4]
  Wheat plant response rating: 0
wheat; [5]
  Wheat plant response rating: 0
wheat; [6]
  Wheat plant response rating: 0
wheat; [7]
  Plant response rating, Wheat: 0
Surinam grass; [1]
  B. signalgrass plant response rating: 0
Surinam grass; [2]
  B. signalgrass plant response rating: 0
Surinam grass; [3]
  Plant response rating, B. signalgrass: 3
Surinam grass; [4]
  B. signalgrass plant response rating: 0
Surinam grass; [5]
  B. signalgrass plant response rating: 0
Surinam grass; Preemergence, Rate 250 g/ha
  B. signalgrass plant response rating (0 to 10 scale, 0 is no effect, 10 is complete control): 0
Surinam grass; [6]
  B. signalgrass plant response rating: 0
Surinam grass; [7]
  Plant response rating, B. signalgrass: 0
Sugar beet; [1]
  Sugarbeets plant response rating: 0
Sugar beet; [2]
  Sugarbeets plant response rating: 0
Sugar beet; [3]
  Plant response rating, Sugarbeets: 4
Sugar beet; [4]
  Sugarbeets plant response rating: 0
Sugar beet; [5]
  Sugarbeets plant response rating: 0
Sugar beet; Preemergence, Rate 250 g/ha
  Sugarbeets plant response rating (0 to 10 scale): 0
Sugar beet; [6]
  Sugarbeets plant response rating: 3
Sugar beet; [7]
  Plant response rating, Sugarbeets: 0
corn; [1]
  Corn plant response rating: 0
corn; [2]
  Corn plant response rating: 0
corn; [3]
  Plant response rating, Corn: 0
corn; [4]
  Corn plant response rating: 0
corn; [5]
  Corn plant response rating: 0
corn; Preemergence, Rate 250 g/ha
  Corn plant response rating (0 to 10 scale): 0
corn; [6]
  Corn plant response rating: 0
corn; [7]
  Plant response rating, Corn: 0
blackgrass; [1]
  Blackgrass plant response rating: 0
blackgrass; [2]
  Blackgrass plant response rating: 0
blackgrass; [3]
  Plant response rating, Blackgrass: 3
blackgrass; [4]
  Blackgrass plant response rating: 0
blackgrass; [5]
  Blackgrass plant response rating: 4
blackgrass; Preemergence, Rate 250 g/ha
  Blackgrass plant response rating (0 to 10 scale): 6
blackgrass; [7]
  Plant response rating, Blackgrass: 2
soybean; [1]
  Soybean plant response rating: 2
soybean; [2]
  Soybean plant response rating: 2
soybean; [3]
  Plant response rating, Soybean: 3
soybean; [4]
  Soybean plant response rating: 0
soybean; [5]
  Soybean plant response rating: 0
soybean; Preemergence, Rate 250 g/ha
  Soybean plant response rating (0 to 10 scale): 0
soybean; [6]
  Soybean plant response rating: 0
soybean; [7]
  Plant response rating, Soybean: 2
cocklebur; [1]
  Cocklebur plant response rating: 0
cocklebur; [2]
  Cocklebur plant response rating: 0
cocklebur; [3]
  Plant response rating, Cocklebur: 4
cocklebur; [4]
  Cocklebur plant response rating: 0
cocklebur; [5]
  Cocklebur plant response rating: 0
cocklebur; Preemergence, Rate 250 g/ha
  Cocklebur plant response rating (0 to 10 scale): 0
cocklebur; [6]
  Cocklebur plant response rating: 0
cocklebur; [7]
  Plant response rating, Cocklebur: 0
